Experimental findings from ChEMBL document CHEMBL1153309, “Synthesis and biological evaluation of platensimycin analogs” (Bioorg Med Chem Lett, 2009) are described below.

By IC50 is commonly meant the concentration needed to halve the response being measured. A low value points to greater potency in that assay. One may read the MIC as the lowest concentration found to suppress growth. A higher MIC goes with a less susceptible organism.

Structures are written as SMILES. Values after ≈ are worked out from the molar mass of the structure shown. Some results are limits rather than exact numbers.

The target of assay [1] is T1, 3-oxoacyl-[acyl-carrier-protein] synthase 2 (Staphylococcus aureus, UniProt Q5TKS0).
T1 sequence (Q5TKS0 whole entry): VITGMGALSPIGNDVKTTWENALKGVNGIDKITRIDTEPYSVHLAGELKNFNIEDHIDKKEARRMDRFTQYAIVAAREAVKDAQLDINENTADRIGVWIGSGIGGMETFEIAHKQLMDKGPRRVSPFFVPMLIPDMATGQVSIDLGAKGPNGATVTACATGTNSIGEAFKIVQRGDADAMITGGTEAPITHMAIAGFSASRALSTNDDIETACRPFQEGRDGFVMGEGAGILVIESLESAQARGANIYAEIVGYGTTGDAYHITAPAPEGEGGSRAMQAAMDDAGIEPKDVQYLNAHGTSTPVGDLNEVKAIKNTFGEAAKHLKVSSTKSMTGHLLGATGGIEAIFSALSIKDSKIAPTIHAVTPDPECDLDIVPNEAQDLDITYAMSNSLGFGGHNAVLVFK
Description: Inhibition of FabF-mediated type 2 fatty acid synthesis in Staphylococcus aureus by cell free assay.

The subject of assay [2] is Staphylococcus aureus. Description: Antibacterial activity against antisense fabH/fabF sensitized Staphylococcus aureus assessed as minimum concentration required to show differential zone of fabF antisense strain clearance by two plate differential sensitivity assay. It counts as functional.
The test system of assay [3] is Staphylococcus aureus. Description: Antimicrobial activity against wild type Staphylococcus aureus. The assay is classed as functional.

In turn, `CC1=CC(=O)[C@@](C)(CCC(=O)Nc2c(O)ccc(C(=O)O)c2O)C2C3CC4CC12CC4(C)O3` (stereo not given in full) showed an IC50 in assay [1] of 5.27 µM. For the same molecule, the Activity in assay [2] was determined as 0.03 µg/mL. It took 4 µg/mL (≈ 8.78 µM) to inhibit growth in assay [3] (MIC).

Molecule `CN1CC23CC4CC(OC4(C)C2)C3[C@](C)(CCC(=O)Nc2c(O)ccc(C(=O)O)c2O)C1=O` (stereo not given in full) gave an IC50 in assay [1] of over 436 µM. Moreover, the Activity in assay [2] was over 2.7 µg/mL. Also, the MIC in assay [3] is over 64 µg/mL.

Consider `CC12CC34Cc5cnoc5[C@@](C)(CCC(=O)Nc5c(O)ccc(C(=O)O)c5O)C3C(CC1C4)O2` (stereo not given in full), for which half-maximal inhibition in assay [1] (IC50) was put at 22.4 µM. Also, the Activity in assay [2] is 0.3 µg/mL. The molecule also came in with an MIC in assay [3] of 16 µg/mL (≈ 34.2 µM).

In turn, `Cn1ncc2c1[C@@](C)(CCC(=O)Nc1c(O)ccc(C(=O)O)c1O)C1C3CC4CC1(C2)CC4(C)O3` (stereo not given in full) showed an IC50 in assay [1] of 156 µM. Also, the Activity in assay [2] is over 2.7 µg/mL. The minimal inhibitory concentration (MIC) in assay [3] was over 64 µg/mL.

On to `CC12CC34CC1CC(O2)C3[C@](C)(CCC(=O)Nc1c(O)ccc(C(=O)O)c1O)C(=O)[C@@H]1C[C@@H]14` (stereo not given in full), for which the half-inhibitory concentration (IC50) in assay [1] was 20.9 µM. Further, the Activity in assay [2] came to 0.1 µg/mL. 1 µg/mL (≈ 2.2 µM) was the least that counted as inhibitory in assay [3] (MIC).

The molecule `CC12CC34COC(=O)[C@@](C)(CCC(=O)Nc5c(O)ccc(C(=O)O)c5O)C3C(CC1C4)O2` (stereo not given in full) showed an IC50 in assay [1] of 165 µM. Moreover, in assay [2], the Activity was over 2.7 µg/mL. This molecule also gave an MIC in assay [3] of over 64 µg/mL.

In assay [1], `CC1CC(=O)[C@@](C)(CCC(=O)Nc2c(O)ccc(C(=O)O)c2O)C2C3CC4CC12CC4(C)O3` (stereo not given in full) had an IC50 of 28.4 µM. Moreover, the Activity in assay [2] was under 20 µg/mL. For the same molecule, in assay [3], the MIC is 4 µg/mL (≈ 8.74 µM).

In assay [1], `CC12CC34CCC(=O)[C@@](C)(CCC(=O)Nc5c(O)ccc(C(=O)O)c5O)C3C(CC1C4)O2` (stereo not given in full) [DIHYDROPLATENSIMYCIN] showed an IC50 of 4.51 µM. Besides, in assay [2], the Activity was 0.4 µg/mL. In assay [3], this molecule registered a minimal inhibitory concentration (MIC) of 2 µg/mL (≈ 4.51 µM).

The molecule `CC12CC34CC1CC(O2)C3[C@](C)(CCC(=O)Nc1c(O)ccc(C(=O)O)c1O)C(=O)CC4c1ccccc1` (stereo not given in full) [PHENYL DIHYDROPLATENSIMYCIN] had an IC50 in assay [1] of 7.7 µM. Also, the Activity in assay [2] is under 20 µg/mL. Besides, 4 µg/mL (≈ 7.7 µM) was the least that counted as inhibitory in assay [3] (MIC).

In assay [1], `CC12C[C@@]34C=CC(=O)[C@@](C)(CCC(=O)Nc5c(O)ccc(C(=O)O)c5O)C3[C@H](CC1C4)O2` (stereo not given in full) [PLATENSIMYCIN] had a half-maximal inhibitory concentration (IC50) of 1.13 µM. The Activity in assay [2] amounted to 0.01 µg/mL. The same molecule returned an MIC in assay [3] of 0.5 µg/mL (≈ 1.13 µM).
